Data from PubChem BioAssay (NCI).
“And” between values parts separate entries of the source, which are not always exact repeats. Identical values can stand only once.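 Exposure lasted 48 hours, with cells grown in 96-well plates and compounds tested at five concentrations. Abbreviation: GI50, concentration required for 50% inhibition of growth. TGI marks complete inhibition of growth.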

Experiments:
Experiment in all cases: NCI-60 cell line screen, 48 h
ACHN renal = tested on: ACHN renal
U251 CNS = tested on: U251 CNS
NCI/ADR-RES ovarian = tested on: NCI/ADR-RES ovarian
NCI-H226 lung = tested on: NCI-H226 lung
SK-MEL-28 melanoma = tested on: SK-MEL-28 melanoma
HCT-116 colon = tested on: HCT-116 colon
SF-539 CNS = tested on: SF-539 CNS
SN12C renal = tested on: SN12C renal
MCF7 breast = tested on: MCF7 breast
HCT-15 colon = tested on: HCT-15 colon

## CCN(CC)c1ccc(/C=N/NC(=O)c2ccc(Nc3ccnc(C(F)(F)F)c3)cc2)c(O)c1
ACHN renal
  GI50: 0.142 µM
  TGI: 2.56 µM
U251 CNS
  GI50: 0.145 µM
  TGI: > 37.6 µM
NCI/ADR-RES ovarian
  GI50: 0.598 µM
  TGI: 17.6 µM
NCI-H226 lung
  GI50: 0.288 µM
  TGI: 2.34 µM
SK-MEL-28 melanoma
  GI50: 0.32 µM
  TGI: > 27.3 µM
HCT-116 colon
  GI50: 0.141 µM
  TGI: 1.34 µM
SF-539 CNS
  GI50: 0.234 µM
  TGI: 0.87 µM
SN12C renal
  GI50: 0.395 µM
  TGI: > 100 µM
MCF7 breast
  GI50: 0.326 µM
  TGI: > 100 µM
HCT-15 colon
  GI50: 0.0666 µM
  TGI: 2.55 µM

## COC(=O)C1=CN(CC2=CC(=O)C(C)=CC2=O)C=C(C(=O)OC)C1c1cccc(OC)c1OC
ACHN renal
  GI50: 6.69 µM
  TGI: 22.2 µM
U251 CNS
  GI50: 18.6 µM
  TGI: 50.2 µM
NCI/ADR-RES ovarian
  GI50: 18.3 µM
  TGI: 38.3 µM
NCI-H226 lung
  GI50: 15.6 µM
  TGI: 40.5 µM
SK-MEL-28 melanoma
  GI50: 31 µM
  TGI: > 57.9 µM
HCT-116 colon
  GI50: 18.5 µM
  TGI: 36.7 µM
SF-539 CNS
  GI50: 17.1 µM
  TGI: 56.2 µM
SN12C renal
  GI50: 13.8 µM
  TGI: 34 µM
MCF7 breast
  GI50: 18.6 µM
  TGI: 55.2 µM
HCT-15 colon
  GI50: 18.4 µM
  TGI: 36.9 µM

## CCOC(=O)c1cc2c(cc1Cl)SC(N(c1ccc(F)cc1)S(=O)(=O)c1ccc(OC)cc1)=NS2(=O)=O
ACHN renal
  GI50: 18.5 µM
  TGI: 42.1 µM
U251 CNS
  GI50: 16.2 µM
  TGI: 34.7 µM
NCI/ADR-RES ovarian
  GI50: 21.2 µM
  TGI: 42.1 µM
NCI-H226 lung
  GI50: 29.8 µM
  TGI: > 100 µM
SK-MEL-28 melanoma
  GI50: 14.1 µM
  TGI: 29 µM
HCT-116 colon
  GI50: 17.1 µM
  TGI: 32 µM
SF-539 CNS
  GI50: 9.61 µM
  TGI: 22.7 µM
SN12C renal
  GI50: 19.3 µM
  TGI: 50 µM
MCF7 breast
  GI50: 11.8 µM
  TGI: 25.4 µM
HCT-15 colon
  GI50: 14.8 µM
  TGI: 27.9 µM

## O=C1C(NCCO)=C(N2CC2)C(=O)C(NCCO)=C1N1CC1
ACHN renal
  TGI: > 100 µM
U251 CNS
  TGI: > 71.6 µM
NCI/ADR-RES ovarian
  TGI: > 100 µM
NCI-H226 lung
  TGI: > 94.4 µM
SK-MEL-28 melanoma
  TGI: > 100 µM
HCT-116 colon
  TGI: 67.1 µM
SF-539 CNS
  TGI: 98 µM
SN12C renal
  TGI: 56.7 µM
MCF7 breast
  TGI: > 100 µM
HCT-15 colon
  TGI: > 72.5 µM

## O=C(Nc1ccccc1Cl)c1cnc2ccc(C3CCNCC3)cn12
ACHN renal
  GI50: 1.02 µM
  TGI: > 46.5 µM
U251 CNS
  GI50: 51.7 µM
  TGI: > 100 µM
NCI/ADR-RES ovarian
  GI50: 39.2 µM
  TGI: > 100 µM
NCI-H226 lung
  GI50: > 24.4 µM
  TGI: > 100 µM
SK-MEL-28 melanoma
  GI50: 18.4 µM
  TGI: 43.3 µM
HCT-116 colon
  GI50: 13.4 µM
  TGI: > 100 µM
SF-539 CNS
  GI50: 4.94 µM
  TGI: > 100 µM
SN12C renal
  GI50: 3.71 µM
  TGI: > 100 µM
MCF7 breast
  GI50: > 68.9 µM
  TGI: > 100 µM
HCT-15 colon
  GI50: 11 µM
  TGI: > 100 µM

## FC(F)(F)c1ccc2c(c1)N(CCCN1CCN(C3CC3)CC1)c1ccccc1S2
ACHN renal
  GI50: 10.6 µM
  TGI: 24.6 µM
U251 CNS
  GI50: 4.94 µM
  TGI: 18 µM
NCI/ADR-RES ovarian
  GI50: 10.3 µM
  TGI: 23.1 µM
NCI-H226 lung
  GI50: 10.7 µM
  TGI: 23.4 µM
SK-MEL-28 melanoma
  GI50: 15.2 µM
  TGI: 29.1 µM
HCT-116 colon
  GI50: 9.43 µM
  TGI: 23.2 µM
SF-539 CNS
  GI50: 14 µM
  TGI: 29.5 µM
SN12C renal
  GI50: 13.3 µM
  TGI: 28.1 µM
MCF7 breast
  GI50: 9.53 µM
  TGI: 22.1 µM
HCT-15 colon
  GI50: 3.81 µM
  TGI: 18.6 µM

## Cc1cccc2c3c(sc12)C(c1ccc(Cl)cc1)C(C#N)=C(/N=C/c1ccc(Cl)cc1)O3 (stereo not given)
ACHN renal
  GI50: 0.858 µM
  TGI: > 100 µM
U251 CNS
  GI50: 0.443 µM
  TGI: 21.3 µM
NCI/ADR-RES ovarian
  GI50: 0.307 µM
  TGI: 4.27 µM
NCI-H226 lung
  GI50: 0.75 µM
  TGI: > 19.7 µM
SK-MEL-28 melanoma
  GI50: 4.73 µM
  TGI: > 100 µM
HCT-116 colon
  GI50: 0.402 µM
  TGI: > 100 µM
SF-539 CNS
  GI50: 0.298 µM
  TGI: 1.26 µM
SN12C renal
  GI50: 0.623 µM
  TGI: > 100 µM
MCF7 breast
  GI50: 0.301 µM
  TGI: > 100 µM
HCT-15 colon
  GI50: 0.392 µM
  TGI: > 100 µM

## O=C(O)CC(Cc1ccc2c(c1)OCO2)C(=O)O (stereo not given)
ACHN renal
  TGI: > 100 µM
U251 CNS
  TGI: > 100 µM
NCI/ADR-RES ovarian
  TGI: > 100 µM
NCI-H226 lung
  TGI: > 100 µM
SK-MEL-28 melanoma
  TGI: > 100 µM
HCT-116 colon
  TGI: > 100 µM
SF-539 CNS
  TGI: > 100 µM
SN12C renal
  TGI: > 100 µM
MCF7 breast
  TGI: > 100 µM
HCT-15 colon
  TGI: > 100 µM

## CC(C)(C)Cn1c(N)nc2ccc(-c3[nH]c(C(C)(C)C)nc3-c3ccc(F)cc3)nc21
ACHN renal
  GI50: 1.04 µM
  TGI: 16.7 µM
U251 CNS
  GI50: 10.8 µM
  TGI: 25.2 µM
NCI/ADR-RES ovarian
  GI50: 8.67 µM
  TGI: 33.1 µM
NCI-H226 lung
  GI50: 12.2 µM
  TGI: 35.9 µM
SK-MEL-28 melanoma
  GI50: 11.6 µM
  TGI: 23.8 µM
HCT-116 colon
  GI50: 6.75 µM
  TGI: 23 µM
SF-539 CNS
  GI50: 13.3 µM
  TGI: 28.5 µM
SN12C renal
  GI50: 5.57 µM
  TGI: 21.4 µM
MCF7 breast
  GI50: 10.6 µM
  TGI: 25.5 µM
HCT-15 colon
  GI50: 4.9 µM
  TGI: 30.4 µM

## COc1cc(N2CCC(N(C)C)CC2)ccc1Nc1ncc(Cl)c(Nc2ccccc2P(C)(C)=O)n1
ACHN renal
  GI50: 0.972 µM
  TGI: > 9.65 µM
U251 CNS
  GI50: 1.42 µM and 0.713 µM
  TGI: 9.94 µM and > 10 µM
NCI/ADR-RES ovarian
  GI50: 15.6 µM and > 6.15 µM
  TGI: 98.1 µM and > 10 µM
NCI-H226 lung
  GI50: 0.454 µM and 0.0582 µM
  TGI: 2.76 µM and 4.21 µM
SK-MEL-28 melanoma
  GI50: 6.44 µM and 1.31 µM
  TGI: 37 µM and > 7.34 µM
HCT-116 colon
  GI50: 1.4 µM and 0.183 µM
  TGI: > 39.2 µM
SF-539 CNS
  GI50: 1.15 µM and 0.511 µM
  TGI: 2.97 µM and 2.49 µM
SN12C renal
  GI50: 0.971 µM and 0.398 µM
  TGI: > 72.8 µM
MCF7 breast
  GI50: 0.202 µM and 0.0522 µM
  TGI: 21.6 µM and > 10 µM
HCT-15 colon
  GI50: 2.8 µM and 1.48 µM
  TGI: 16.9 µM and > 9.67 µM

## CC1(C)OC2C(CO)OC(n3ccc(=O)[nH]c3=O)C2O1 (stereo not given)
ACHN renal
  TGI: > 100 µM
U251 CNS
  TGI: > 100 µM
NCI/ADR-RES ovarian
  TGI: > 100 µM
NCI-H226 lung
  TGI: > 100 µM
SK-MEL-28 melanoma
  TGI: > 100 µM
HCT-116 colon
  TGI: > 100 µM
SF-539 CNS
  TGI: > 100 µM
SN12C renal
  TGI: > 100 µM
MCF7 breast
  TGI: > 100 µM
HCT-15 colon
  TGI: > 100 µM

## COc1cc2c(cc1OCCCCCOc1cc(-c3ccc(F)cc3)nc(C)n1)N=C[C@@H]1CCCN1C2=O
ACHN renal
  GI50: > 37.6 µM
  TGI: > 68.6 µM
U251 CNS
  GI50: > 34.8 µM
  TGI: > 86.7 µM
NCI/ADR-RES ovarian
  GI50: > 100 µM
  TGI: > 100 µM
NCI-H226 lung
  GI50: > 100 µM
  TGI: > 100 µM
SK-MEL-28 melanoma
  GI50: > 46.2 µM
  TGI: > 79.8 µM
HCT-116 colon
  GI50: > 52.9 µM
  TGI: 98.4 µM
SF-539 CNS
  GI50: > 100 µM
  TGI: > 100 µM
SN12C renal
  GI50: > 44.2 µM
  TGI: > 71.2 µM
MCF7 breast
  GI50: > 23.6 µM
  TGI: > 48.8 µM
HCT-15 colon
  GI50: > 41.9 µM
  TGI: > 77.9 µM

## CN(C)c1cccc2[nH]c(-c3[nH]ncc3Nc3ccnc(N)n3)nc12
ACHN renal
  GI50: 0.0165 µM
  TGI: 0.679 µM
U251 CNS
  GI50: < 0.0119 µM
  TGI: 1.33 µM
NCI/ADR-RES ovarian
  GI50: 0.0328 µM
  TGI: 1.5 µM
NCI-H226 lung
  GI50: < 0.0159 µM
  TGI: 0.193 µM
SK-MEL-28 melanoma
  GI50: 0.0183 µM
  TGI: 0.452 µM
HCT-116 colon
  GI50: < 0.01 µM
  TGI: 1.09 µM
SF-539 CNS
  GI50: < 0.0118 µM
  TGI: 0.0608 µM
SN12C renal
  GI50: 0.0233 µM
  TGI: 1.1 µM
MCF7 breast
  GI50: 0.0206 µM
  TGI: 1.15 µM
HCT-15 colon
  GI50: 0.0144 µM
  TGI: 1.03 µM
